In EP2809669B1, “FUSED PYRROLEDICARBOXAMIDES AND THEIR USE AS PHARMACEUTICALS” (SANOFI, priority 2012, dated 2013):

Experiments:
upper airway = experiment: Effect on upper airway collapsibility in the anesthetized pig (negative pressure challenge); format: in vivo; settings: 100 µg/kg intravenous bolus injection, negative pressure -150 mbar
Text: Effect on upper airway collapsibility in the pig Pharmacological efficacy against obstructive apneas was investigated in chloralose-urethane anesthetized pigs (weight range 20 to 35 kg), a large-animal model for obstructive apneas. Negative pressure generated by a negative pressure device was applied with a cannula to the upper part of the trachea for at least three breaths so that the upper airway was exposed to the negative pressure generated by the device. This caused an upper airway collapse as in an obstructive apnea in control animals treated with vehicle only, and in animals of the treatment group before the test compound was administered (baseline situation). Different levels of negative pressure were used to cause a collapse of the upper airway (-50 mbar, -100 mbar and -150 mbar). These negative pressure challenges were repeated several times before vehicle or test compound was given, and at regular intervals after administration of vehicle or test compound. Whether the upper airway was collapsed or open, was judged by airflow measurement and by the tracheal pressure in the cannula inserted into the upper trachea. In case the upper airway was collapsed by the negative pressure, airflow to the negative pressure device was close to zero. As a second parameter tracheal pressure approached the negative pressure generated by the device during upper airway collapse. Test compounds were administered by intravenous bolus injection. After administration of an effective test compound the upper airway was open during the negative pressure challenges, i.e. not collapsed, as indicated by airflow to the negative pressure device and the fact that tracheal pressure now approached atmospheric pressure in the inspiratory phase where upper airway muscles are activated. In vehicle-treated controls upper airway collapse occurred at every negative pressure challenge at -50 mbar, -100 mbar and -150 mbar. In Table 17, the time after administration of compounds of the formula I from the examples above is shown during which no upper airway collapse occurred (time of inhibition of collapsibility) at a negative pressure of -150 mbar. […]

hERG channel = target: T1, hERG channel (Homo sapiens, UniProt Q12809); experiment: Determination of the effect on the hERG channel in CHO cells (whole-cell patch clamp); format: cell-based; settings: CHO cells stably expressing hERG, room temperature, read-out: IC50 value [µM] for hERG inhibition
T1 construct: expressed in transfected cells
T1 sequence (Q12809 whole entry): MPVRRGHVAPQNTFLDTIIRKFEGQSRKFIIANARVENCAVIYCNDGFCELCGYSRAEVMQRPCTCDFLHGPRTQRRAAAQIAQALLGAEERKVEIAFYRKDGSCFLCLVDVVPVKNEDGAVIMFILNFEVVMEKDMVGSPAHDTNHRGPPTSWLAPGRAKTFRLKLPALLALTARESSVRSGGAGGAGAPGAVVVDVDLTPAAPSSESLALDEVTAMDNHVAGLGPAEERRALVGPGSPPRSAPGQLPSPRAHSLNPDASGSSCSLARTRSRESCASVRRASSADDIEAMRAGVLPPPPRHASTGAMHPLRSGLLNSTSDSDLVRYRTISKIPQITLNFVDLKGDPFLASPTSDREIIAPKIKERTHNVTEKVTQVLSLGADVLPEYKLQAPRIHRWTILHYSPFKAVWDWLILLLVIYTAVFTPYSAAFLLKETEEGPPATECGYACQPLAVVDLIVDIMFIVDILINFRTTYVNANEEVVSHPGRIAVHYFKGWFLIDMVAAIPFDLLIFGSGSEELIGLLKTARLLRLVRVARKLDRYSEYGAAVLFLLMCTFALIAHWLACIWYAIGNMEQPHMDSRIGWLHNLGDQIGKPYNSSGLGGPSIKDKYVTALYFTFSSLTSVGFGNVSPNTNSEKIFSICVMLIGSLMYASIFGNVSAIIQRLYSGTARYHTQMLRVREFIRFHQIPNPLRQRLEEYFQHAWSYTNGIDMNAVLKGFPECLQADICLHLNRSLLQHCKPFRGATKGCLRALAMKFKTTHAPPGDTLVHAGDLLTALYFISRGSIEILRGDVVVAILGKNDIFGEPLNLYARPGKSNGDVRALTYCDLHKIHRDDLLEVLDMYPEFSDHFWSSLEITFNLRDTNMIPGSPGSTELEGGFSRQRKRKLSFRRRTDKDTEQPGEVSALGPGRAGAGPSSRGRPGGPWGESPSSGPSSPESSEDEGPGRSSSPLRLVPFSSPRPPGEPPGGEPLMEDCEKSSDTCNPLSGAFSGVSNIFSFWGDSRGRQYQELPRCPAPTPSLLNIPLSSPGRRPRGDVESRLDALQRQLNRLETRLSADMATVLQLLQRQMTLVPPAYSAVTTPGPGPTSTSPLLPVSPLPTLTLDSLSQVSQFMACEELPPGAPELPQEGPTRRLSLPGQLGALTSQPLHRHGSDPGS
Experimental: Determination of the effect on the hERG channel in CHO cells
An inhibition of the hERG (human Ether-a-go-go-Related Gene) potassium channel is unwanted because it can lead to dangerous arrhythmias. The effect of compounds of the formula I on the cloned human cardiac hERG channel was evaluated in an in vitro model using a whole-cell patch-clamping technique. CHO (Chinese hamster ovary) cells stably expressing hERG, the potassium channel underlying IKr currents in human hearts, were grown in HAM's F-12 media supplemented with 10 % fetal bovine serum, 1 x penicillin/streptomycin and 500 µg/ml G418 (Invitrogen, Carlsbad, CA, USA) in an atmosphere of 95 % air and 5 % carbon dioxide. Cells used for patch-clamping were seeded on glass or plastic coverslips 12 to 36 hours before use. hERG channel currents were recorded at room temperature using the whole-cell configuration of the patch clamp technique with an Axopatch 200B amplifier (Axon Instruments, Foster City, CA, USA). Briefly, electrodes (3 to 6 MΩ resistance) were fashioned from TW150F glass capillary tubes (World Precision Instruments, Sarasota, FL, USA) and filled with pipette solution (containing 120 mM potassium aspartate, 20 mM potassium chloride, 4 mM adenosine triphosphate disodium salt, 5 mM HEPES, 1 mM magnesium chloride; pH adjusted to 7.2 with potassium hydroxide). hERG currents were initiated by a positive voltage pulse (20 mV) followed by a negative pulse (-40 mV) and were recorded for off-line analyses. Once hERG current from a cell perfused with external solution (containing 130 mM sodium chloride, 5 mM potassium chloride, 2.8 mM sodium acetate, 1 mM magnesium chloride, 10 mM HEPES, 10 mM glucose, 1 mM calcium chloride; pH adjusted to 7.4 with sodium hydroxide) without the test compound, i.e. control solution, was stabilized, the cell was perfused with external solution containing the test compound at specific concentrations. For each concentration from each cell, peak amplitude of the steady-state hERG tail current at -40 mV was measured in picoAmpere (pA). The peak amplitude in pA for each concentration (up to a maximum concentration of 10 µM) was compared with that for the control solution from the same cell and expressed as percent value of the control. From the percent values at multiple concentrations, IC50 values for inhibition of hERG can be determined.

For CC[C@@H](NC(=O)c1cc(C(=O)N2CCC[C@@H]2C(=O)OC(C)C)n2c1COCC2)c1ccccc1 [16n, (R)-1-[8-((R)-1-Phenyl-propylcarbamoyl)-3,4-dihydro-1H-pyrrolo[2,1-c][1,4]oxazine-6-carbonyl]-pyrrolidine-2-carboxylic acid isopropyl ester], the “Time of inhibition of collapsibility (at -150 mbar)” value (upper airway) was “for 120 min” and the IC50 (hERG channel) was over 10 µM.
